Assay results: patent publication US20240124410A1, “SMALL MOLECULES AND THEIR USE AS MALT1 INHIBITORS” (University of Pittsburgh - Of the Commonwealth System of …, priority 2021, published 2024)

Experiments:
BCL10-MALT1 interaction = target: T1, BCL10-MALT1 interaction (Homo sapiens, UniProt Q9UDY8); experiment: ELISA-based protein-protein interaction assay; type: binding; parameters: GST-tagged recombinant human full-length MALT1 protein (Novus Biologicals Cat #H00010892-P01); purchased Novus Biologicals H00010892-P01
T1 sequence (Q9UDY8 1-824): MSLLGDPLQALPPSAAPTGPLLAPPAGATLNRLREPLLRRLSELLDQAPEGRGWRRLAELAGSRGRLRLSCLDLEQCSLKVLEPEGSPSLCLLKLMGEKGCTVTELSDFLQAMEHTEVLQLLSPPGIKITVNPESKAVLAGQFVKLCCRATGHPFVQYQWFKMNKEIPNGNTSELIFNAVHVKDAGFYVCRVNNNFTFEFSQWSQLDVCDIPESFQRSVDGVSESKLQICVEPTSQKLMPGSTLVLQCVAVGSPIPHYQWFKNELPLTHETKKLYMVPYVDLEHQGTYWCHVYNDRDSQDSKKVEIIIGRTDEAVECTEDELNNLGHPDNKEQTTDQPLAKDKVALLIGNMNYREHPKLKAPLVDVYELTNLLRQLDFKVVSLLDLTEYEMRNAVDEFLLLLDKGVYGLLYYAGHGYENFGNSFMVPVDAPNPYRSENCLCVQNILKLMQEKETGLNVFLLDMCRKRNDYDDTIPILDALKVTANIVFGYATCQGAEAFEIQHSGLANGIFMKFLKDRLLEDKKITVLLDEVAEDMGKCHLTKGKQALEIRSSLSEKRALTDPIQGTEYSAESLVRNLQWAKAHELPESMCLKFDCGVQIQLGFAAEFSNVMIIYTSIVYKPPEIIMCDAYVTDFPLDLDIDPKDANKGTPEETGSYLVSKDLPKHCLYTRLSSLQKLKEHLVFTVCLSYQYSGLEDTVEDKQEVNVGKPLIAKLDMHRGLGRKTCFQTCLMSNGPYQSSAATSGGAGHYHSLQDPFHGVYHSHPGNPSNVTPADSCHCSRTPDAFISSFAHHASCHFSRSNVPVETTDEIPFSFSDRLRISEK
Description: On a high-binding 96-well ELISA microplate (Greiner Cat #655061), 100 ng of His-tagged recombinant human full-length Bcl10 protein (ProteinTech Cat #Ag12162) in 100 ul PBS was allowed to adhere overnight in 4° C. The plate was blocked with 5% BSA in PBS for 1 hour at room temperature. After washing twice with PBS-T, a mixture of 100 ng of GST-tagged recombinant human full-length MALT1 protein (Novus Biologicals Cat #H00010892-P01), +/−compound that was preincubated for 1 hour in 100 ul PBS, was added to the plate for 1 hour at room temperature. After washing three times with PBS-T, anti-MALT1 antibody in 5% BSA in PBS was added at 1:1000 dilution for 1 hour at room temperature. After washing three times with PBS-T, HRP-conjugated secondary antibody in 5% BSA in PBS was added at 1:5000 dilution for 1 hour at room temperature. After washing three times with PBS-T, 100 ul of TMB was added for 5 minutes, and 100 ul of 2 M sulfuric acid was added to stop the reaction. The plate was read at 450 nm using a spectrophotometer (Molecular Devices SpectraMax i3).

[1] = test system: PMA/iono-induced transcription of interleukin 2 (IL-2); experiment: IL-2 transcription in Jurkat T cells (quantitative RT-PCR); type: cell-based; conditions: compound at 1 μM
Description: The DLBCL cell lines, OCI-Ly1, OCI-Ly3, and OCI-Ly7, were provided by Dr. Mark Minden (University Health Network, Toronto, Ontario, Canada). TMD8 cells were provided by Dr. Louis Staudt (NCI, NIH). OCI-Ly1 and OCI-Ly7 cells were cultured in Iscove's Modified Dulbecco's Medium (IMDM) supplemented with 10% FBS. OCI-Ly3 cells were cultured in IMDM supplemented with 20% FBS. TMD8 and Jurkat T cells were cultured in RPMI1640 medium with 10% FBS. HEK293T cells were cultured in DMEM medium with 10% FBS. All media were supplemented with 100 U/ml penicillin streptomycin. Stimulation of Jurkat cells was conducted by adding 5 ng/ml of phorbol 12-myristatel3 acetate (PMA)(Sigma-Aldrich) and 1μM ionomycin (Calbiochem), or by adding 5-10 μL/mL of ImmunoCult Human CD3/CD28 ([…] Technologies).
Total RNA extraction was performed using RNeasy Plus Mini Kit (Qiagen Cat #74136). 1 ng RNA was transcribed into cDNA using High-Capacity cDNA Reverse Transcription Kit (Applied Biosystems Cat #4368814) according to manufacturer's instructions. RT-PCR reactions were performed using TaqMan gene expression probe sets.

[2] = test system: MALT1 proteolytic cleavage of RelB and N4BP1; experiment: RelB and N4BP1 cleavage assay in Jurkat T cells; type: cell-based; conditions: 20 hours pretreatment, MG132, PMA/iono stimulation
KvLQT1/minK = target: T2, KvLQT1/minK (Homo sapiens, UniProt P15382+P51787); experiment: Eurofins SAFETYscan 78-target panel, off-target effects, KvLQT1/minK; type: biochemical; conditions: antagonist / blocker / inhibitor mode
T2 construct: Eurofins
Description: (§1) FIG. 9. Table summarizing the Eurofins analysis of potential off-target effects of M1i-124. […] values above 10 μM are generally considered to be acceptable. FIG. 10. Representative hematoxylin and eosin (H&E) staining of organ sections (lung, heart, kidney, liver and adrenal) from control and M1i-124 treated mice described in FIG. 6.
(§2) Studies were performed using the services of Touchstone Biosciences and Eurofins Pharma Discovery Services. […] All blood samples (30-50 ul per sample) were taken via tail vein at 5, 15, and 30 minutes, and 1, 2, 4, 6, 8, and 24 hours after dosing. Blood samples are collected in Greiner MiniCollect K2 EDTA tubes, placed on ice, and within 30 minutes, centrifuged at 15,000 g for 5 minutes to obtain plasma samples. All plasma samples are stored at −70° C. until analysis. Plasma samples were prepared for analysis by LC-MS/MS, and key PK parameters, including terminal half-life (t 112), initial plasma concentration (C0), area under the plasma concentration vs. time curve (AUC), volume of distribution at steady-state (Vss), total plasma clearance (CLp), and mean residence time (MRT), were measured.
(§3) Assay details are available through Eurofins.

DRD1 = target: T3, DRD1 (Homo sapiens, UniProt P21728); experiment: Eurofins SAFETYscan 78-target panel, off-target effects, DRD1; type: biochemical; conditions: antagonist / blocker / inhibitor mode
T3 construct: Eurofins
T3 sequence (P21728 whole entry): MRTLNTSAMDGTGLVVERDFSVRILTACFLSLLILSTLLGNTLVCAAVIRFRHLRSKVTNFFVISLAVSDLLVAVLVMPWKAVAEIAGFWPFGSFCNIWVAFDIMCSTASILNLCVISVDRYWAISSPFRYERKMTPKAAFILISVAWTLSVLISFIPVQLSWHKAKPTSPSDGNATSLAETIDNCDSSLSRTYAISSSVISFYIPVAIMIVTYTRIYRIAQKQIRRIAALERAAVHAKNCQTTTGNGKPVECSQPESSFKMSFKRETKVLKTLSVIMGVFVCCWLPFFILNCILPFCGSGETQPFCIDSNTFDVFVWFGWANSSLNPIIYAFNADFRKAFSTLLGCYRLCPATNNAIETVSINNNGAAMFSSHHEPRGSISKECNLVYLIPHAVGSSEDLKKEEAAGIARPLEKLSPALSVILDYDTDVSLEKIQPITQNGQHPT
Description: as §1, §2, §3

nAChR(a4/b2) = target: T4, nAChR(a4/b2) (Homo sapiens, UniProt P17787+P43681); experiment: Eurofins SAFETYscan 78-target panel, off-target effects, nAChR(a4/b2); type: biochemical; conditions: antagonist / blocker / inhibitor mode
T4 construct: Eurofins
T4 sequence (P43681 29-627 limits assumed): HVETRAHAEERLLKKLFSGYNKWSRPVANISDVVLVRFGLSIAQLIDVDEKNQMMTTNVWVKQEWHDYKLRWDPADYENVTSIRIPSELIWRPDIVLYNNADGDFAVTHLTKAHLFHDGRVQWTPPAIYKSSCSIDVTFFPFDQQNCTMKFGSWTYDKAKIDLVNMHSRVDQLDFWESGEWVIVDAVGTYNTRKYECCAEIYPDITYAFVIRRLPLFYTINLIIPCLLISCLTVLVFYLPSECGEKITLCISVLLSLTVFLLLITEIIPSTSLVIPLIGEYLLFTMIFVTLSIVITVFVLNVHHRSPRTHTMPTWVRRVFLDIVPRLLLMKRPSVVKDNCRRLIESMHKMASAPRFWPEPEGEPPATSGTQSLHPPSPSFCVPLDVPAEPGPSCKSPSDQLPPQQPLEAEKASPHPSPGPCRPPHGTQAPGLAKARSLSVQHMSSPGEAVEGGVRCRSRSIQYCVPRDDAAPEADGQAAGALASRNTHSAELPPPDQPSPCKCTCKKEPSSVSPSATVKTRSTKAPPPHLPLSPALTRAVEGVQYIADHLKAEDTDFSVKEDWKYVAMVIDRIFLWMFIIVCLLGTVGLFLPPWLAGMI
T4 sequence (P17787 26-502): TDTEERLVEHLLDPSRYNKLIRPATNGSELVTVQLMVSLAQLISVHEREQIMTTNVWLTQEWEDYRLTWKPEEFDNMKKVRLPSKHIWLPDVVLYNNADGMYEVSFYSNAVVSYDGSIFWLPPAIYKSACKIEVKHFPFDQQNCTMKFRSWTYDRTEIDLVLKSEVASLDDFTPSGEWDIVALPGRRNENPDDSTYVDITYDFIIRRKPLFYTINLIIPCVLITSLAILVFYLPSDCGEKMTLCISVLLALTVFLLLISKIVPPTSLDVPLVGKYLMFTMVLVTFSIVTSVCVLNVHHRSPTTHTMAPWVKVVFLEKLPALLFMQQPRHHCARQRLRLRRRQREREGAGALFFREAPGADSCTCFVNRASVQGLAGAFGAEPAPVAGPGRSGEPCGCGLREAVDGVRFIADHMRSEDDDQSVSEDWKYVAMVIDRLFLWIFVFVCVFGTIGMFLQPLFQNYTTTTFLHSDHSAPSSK
Description: as §1, §2, §3

OPRM1 = target: T5, OPRM1 (Homo sapiens, UniProt P35372); experiment: Eurofins SAFETYscan 78-target panel, off-target effects, OPRM1; type: biochemical; conditions: antagonist / blocker / inhibitor mode
T5 construct: Eurofins
T5 sequence (P35372 whole entry): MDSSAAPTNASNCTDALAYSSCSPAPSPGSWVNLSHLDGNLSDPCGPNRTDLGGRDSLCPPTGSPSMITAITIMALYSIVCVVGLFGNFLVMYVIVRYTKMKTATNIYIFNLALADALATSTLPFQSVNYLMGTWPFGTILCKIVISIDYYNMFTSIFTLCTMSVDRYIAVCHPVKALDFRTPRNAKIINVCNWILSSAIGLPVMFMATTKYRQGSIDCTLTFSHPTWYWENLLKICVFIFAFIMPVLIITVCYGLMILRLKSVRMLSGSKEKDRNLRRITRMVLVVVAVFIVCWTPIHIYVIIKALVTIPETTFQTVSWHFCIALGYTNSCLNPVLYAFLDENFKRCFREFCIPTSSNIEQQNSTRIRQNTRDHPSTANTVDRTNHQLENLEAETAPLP
Description: as §1, §2, §3

Row | Structure (SMILES) | ELISA IC50 compared with parent compound M1i-124 (BCL10-MALT1 interaction) | Disruption of the BCL10-MALT1 interaction by ELISA in the presence of tween (BCL10-MALT1 interaction; 0.005% tween) | Transcription of interleukin 2 (IL-2) [1] | MALT1 proteolytic cleavage of N4BP1 (ratio cleaved/full-length) [2] | MALT1 proteolytic cleavage of RelB (ratio cleaved/full-length) [2] | IC50 (KvLQT1/minK) [nM] | IC50 (DRD1) [nM] | IC50 (nAChR(a4/b2)) [nM] | IC50 (OPRM1) [nM]
1 | COc1ccc(CNS(=O)(=O)c2ccc(Cc3ccc(S(=O)(=O)NCc4ccc(OC)cc4)cc3)cc2)cc1 [M1i-124d1] | lower IC50 as compared to parent compound | retain the ability to disrupt the BCL10-MALT1 interaction | inhibit | inhibit | inhibit | – | – | – | –
2 | O=S(=O)(NCc1ccc2c(c1)OCO2)c1ccc(Cc2ccc(S(=O)(=O)NCc3ccc4c(c3)OCO4)cc2)cc1 [M1i-124] | – | – | – | – | – | 1800 | 1900 | 4000 | 3700
